Tests used:
PBMC = experiment: Cytotoxicity in primary cells, ATP-based method; type: cell-based, human
Method: (§1) The non-specific toxicity of the compounds is evaluated in non-tumor immortalized cells with cell count and / or MTS methods, and in primary Peripheral Blood Mononuclear Cells (PBMC) with the ATP-based method.
Primary human Peripheral Blood Mononuclear Cells (PBMC) are incubated at 37°C and 5% CO2 for the viability assay with CellTiter Glo 2.0 kit, an ATP-based method (Promega, Catalog number: G9241). 48 h prior to the assay, 2 µg/ml of phytohemagglutinin-A (PHA) are added to PBMC culture and cells are incubated for 48 h at 37°C and 5% CO2. PBMC are centrifuged at 300 G for 10 minutes, then re-suspended in growth medium and plated at density of 6 x 10^4 cells/well. […]
PBMC incubated with the same amount of DMSO present in the compound dilutions are used as control. After the incubation, 50 µl of cell cultures from each well are transferred in a luminescence plate after vigorous pipetting and 50 µl of CellTiter Glo 2.0 are added in each well, then the plate is incubated in the Glomax Discovery Reader (Promega, Catalog number: GM3000) following the instructions. Relative luminescence units (RLU) calculated in each well is elaborated with GraphPad software: 100% viability is determined as the mean RLU value measured in the wells containing untreated PBMCs. IC50 was calculated by GraphPad Prism 8.0 software.

[1] = Systemic and organ toxicity; type: in vivo, mice
Method: […] For blood withdrawal, mice were anesthetized using gaseous anesthesia and 0.2 to 0.3 ml of blood samples were collected in Li-Heparin containing tubes at the time points above indicated, stored on ice, centrifuged within 15 minutes to separate plasma at 1540 ref (5000 rpm) at 4°C for 10 minutes; plasma was separated and transferred to new tubes.
At study closure, animals were sacrificed and tumor and tissues removed for further studies of distribution and morphology. Mice from the efficacy study were anesthetized using gaseous anesthesia and blood samples collected in Li-Heparin containing tubes by intracardiac puncture, stored on ice, centrifuged within 15 minutes to separate plasma at 1540 ref (5000 rpm), at 4°C for 10 minutes; plasma was separated and transferred to new tubes. After blood collection, tissues for bio-analyses were separated, washed in PBS, dried and frozen at -80±10°C until homogenization.
Tissues for histological analyses were washed in PBS and paraffin embedded soon after separation. Dehydration and Haematoxylin and Eosin (H&E) staining was performed on 5 µm thick sections followed by microscopic examination with Nikon Ni-e microscope (Nikon Instruments, Calenzano, Italy).

MCF10a = experiment: Cytotoxicity in non-tumor cells, cell count method; type: cell-based, human
Method: as §1
Cells were seeded at 3 to 5 x 10^4 cells/well density depending on cell lines and maintained at 37°C in 5% CO2. After 24 hours cells were treated with ascending concentrations of the investigational compounds and the reference (5-fluoro-Uracyl) in a range from 0 to 100 µM. Compounds were dissolved in DMSO which final concentration in each well was 0.5% v:v. After 72 h of incubation with compounds, the cells were detached with trypsin and re-suspended in 1 ml of complete medium; the cell number was evaluated using a Z2 Coulter Counter ("cell count method") (Attallah and Johnson, A simple highly sensitive methods for the determination of cell viability using an electronic particle analyzer, Coulter counter J. Immunol. Methods. 1981, 41, 155; Leonardi et al., Activated kinase screening identifies the IKBKE oncogene as a positive regulator of autophagy. Autophagy, 2019, 15, 312). Alternatively, after the 72 hours of incubation with compounds, the MTS solution (CellTiter 96® AQueous One Solution Cell Proliferation Assay) is added to each well and absorbance at 490 nm wavelength is read after 2 hours of incubation ("MTS method"). […]

CCCCc1cn(-c2ccc(-c3nnc(-c4ccccc4C(F)(F)F)o3)cc2)nn1 [Compound 5]
IC50 (PBMC; Homo sapiens, PBMC, 72 hours of incubation, ATP-based method): 200 µM
toxicity (PBMC; primary human cells (Table 16)): above 100 µM
treatment related morphological changes in brain, liver, lung, spleen and kidney ([1]; 6 weeks of repeated treatment, I.P. 45mg/Kg every 48 hours): No treatment related morphological changes
systemic toxicities or altered behavior ([1]; I.P. 10 mg/kg single administration, mice observed for 24 hours): no toxicities
systemic toxicities or altered behavior ([1]; I.P. 45 mg/kg double administration, mice observed for 48 hours): no toxicities
systemic toxicities or altered behavior ([1]; I.P. 45 mg/kg every 48 hours, 6 weeks, including 1 week follow up): no toxicities
systemic toxicities or altered behavior ([1]; I.P. 45 mg/kg single administration, mice observed for 24 hours): no toxicities
systemic toxicities or altered behavior ([1]; I.T. 0.08 mg/kg single administration, mice observed for 24 hours): no toxicities
systemic toxicities or altered behavior ([1]; I.V. 1 mg/kg single administration, mice observed for 24 hours): no toxicities
systemic toxicities or altered behavior ([1]; P.O. 45 mg/kg single administration, mice observed for 24 hours): no toxicities
IC50 (MCF10a; Homo sapiens, MCF-10A, MCF10a, 72 hours of incubation, cell count method): 440 µM
toxicity (MCF10a; non tumor cell lines (Table 17)): above 100 µM

Source: patent EP4050002A1, “ANTI-PROLIFERATIVE AGENTS” (First Health Pharmaceuticals B.V., priority 2021, dated 2022)
